# Values of other authors in EP3663750B1, “SCAFFOLDED NUCLEIC ACID POLYMER PARTICLES AND METHODS OF MAKING AND USING” (Life Technologies Corporation, priority 2009, dated 2010).
# Conditions: Oil Soluble Azo Initiator Compounds; temperature at which the initiator has a half-life of 10h
row,Structure (SMILES),10 hour half-life decomposition temperature [°C]
1,C=CCNC(=O)C(C)(C)N=NC(C)(C)C(=O)NCC=C,96
2,CC(C)(N=NC(C)(C)C(=O)NC1CCCCC1)C(=O)NC1CCCCC1,111
3,CC(C)CC(C)(C#N)N=NC(C)(C#N)CC(C)C (centres unmarked),51
4,N#CC1(N=NC2(C#N)CCCCC2)CCCCC1,88
5,CCCCNC(=O)C(C)(C)N=NC(C)(C)C(=O)NCCCC,110
6,CCC(C)(C#N)N=NC(C)(C#N)CC (centres unmarked),67

# Same assay, conditions: Water Soluble Azo Initiator Compounds; temperature at which the initiator has a half-life of 10h
row,10 hour half-life decomposition temperature [°C],Structure (SMILES)
1,67,CC(C)(N=NC(C)(C)C(=N)N1CCCC1)C(=N)N1CCCC1
2,87,CC(C)(N=NC(C)(C)C(=O)NCCO)C(=O)NCCO
3,60,CC(C)(N=NC(C)(C)C1=NCCN1CCO)C1=NCCN1CCO

# Same assay, conditions: buffer
row,Structure (SMILES),10 hour half-life decomposition temperature [°C]
1,CC(C)(N=NC(C)(C)C1=NCCN1)C1=NCCN1 [drawing 1],44
2,CC(C)(N=NC(C)(C)C1=NCCN1)C1=NCCN1 [drawing 6],61
